For this assay, the system named is HCV replicon cells. The assay is described as follows: Cell-based HCV replicon assay (replicon RNA by Taqman real time PCR). Particulars: read-out: 1b EC50.
The mark [1] stands for this setting: Hepatitis C virus, 72 h, HCV replicon 1b, cells harvested on day 3.
[2] abbreviates: HCV replicon 1b, cells harvested on day 3.

For 45 compounds, EC50 results are on record in US9156872B2, “2′-azido substituted nucleoside derivatives and methods of use thereof for the treatment of viral diseases” (priority 2011, dated 2015).

Like-named read-outs stand apart in the source and are kept apart here. Bounds are passed on as bounds.

As to `CCOc1nc(N)nc2c1ncn2[C@@H]1O[C@@H]2COP(=O)(OC3CCCC3)O[C@H]2[C@@]1(C)N=[N+]=[N-]` (stereo partly drawn) [Compound 73], under setting [1], the EC50 came out at 0.7 µM. On to `C[C@H](NP(=O)(OC[C@H]1O[C@@H](n2ccc(N)nc2=O)[C@](C)(N=[N+]=[N-])[C@@H]1O)Oc1ccccc1)C(=O)OC1CCCC1` (stereo partly drawn) [Compound 97], for which the EC50 (Hepatitis C virus, 72 h) came to 15 µM. For the compound `C[C@H](NP(=O)(OC[C@H]1O[C@@H](n2ccc(=O)[nH]c2=O)[C@](C)(N=[N+]=[N-])[C@@H]1O)Oc1ccc(F)cc1)C(=O)OC1CCCCC1` (single isomer, unassigned) [Compound 233], the 50% effective concentration (EC50) amounted to 2.1 µM. With `C[C@H](NP(=O)(OC[C@H]1O[C@@H](n2ccc(=O)[nH]c2=O)[C@](C)(N=[N+]=[N-])[C@@H]1O)Oc1ccc(Cl)cc1)C(=O)OC1CCCCC1` (stereo partly drawn) [Compound 324], for the setting “Hepatitis C virus, 72 h”, the concentration giving a half-maximal response (EC50) turned out to be 4.3 µM. Still for that read-out and setting: for `CCOc1nc(N)nc2c1ncn2[C@@H]1O[C@H](COP(=O)(N[C@@H](C)C(=O)OC2CCCCC2)Oc2ccc(Cl)cc2)[C@@H](O)[C@@]1(C)N=[N+]=[N-]` (stereo partly drawn) [Compound 307] the value was 33 µM. In the case of `C[C@@]1(N=[N+]=[N-])[C@@H]2OP(=O)(OC3CCCC3)OC[C@H]2O[C@H]1n1ccc(=O)[nH]c1=O` (stereo partly drawn) [Compound 87], the EC50 under setting [2] is 3.1 µM. In the case of `C[C@H](NP(=O)(OC[C@H]1O[C@@H](n2ccc(=O)[nH]c2=O)[C@](C)(N=[N+]=[N-])[C@@H]1O)Oc1ccccc1)C(=O)OCc1ccccc1` (stereo partly drawn) [Compound 299], the EC50 (Hepatitis C virus, 72 h) came to 5.6 µM.

Regarding `C[C@H](NP(=O)(OC[C@H]1O[C@@H](n2ccc(N)nc2=O)[C@](C)(N=[N+]=[N-])[C@@H]1O)Oc1ccccc1)C(=O)OC1CCCCC1` (single isomer, unassigned) [Compound 338], the 50% effective concentration (EC50) turned out to be 26 µM.

As to `CCOC(=O)[C@H](C)NP(=O)(OC[C@H]1O[C@@H](n2ccc(N)nc2=O)[C@](C)(N=[N+]=[N-])[C@@H]1O)Oc1ccc(Cl)cc1` (single isomer, unassigned) [Compound 190], the EC50 turned out to be 5.6 µM.

On to `COC(=O)[C@H](C)NP(=O)(OC[C@H]1O[C@@H](n2cnc3c(OC)nc(N)nc32)[C@](C)(N=[N+]=[N-])[C@@H]1O)Oc1ccccc1Cl` (single isomer, unassigned) [Compound 256], for which the EC50 (Hepatitis C virus, 72 h) worked out at 1.4 µM.

Consider `CCCCOC(=O)[C@H](C)NP(=O)(OC[C@H]1O[C@@H](n2cnc3c(OCC)nc(N)nc32)[C@](C)(N=[N+]=[N-])[C@@H]1O)Oc1ccc2c(c1)OCO2` (stereo partly drawn) [Compound 371], for which the EC50 (Hepatitis C virus, 72 h) turned out to be 1.4 µM. Regarding `C[C@@]1(N=[N+]=[N-])[C@H](O)[C@@H](CO)O[C@H]1n1cnc2c(=O)[nH]c(N)nc21` [Compound 17], the 50% effective concentration (EC50) under setting [1] was over 100 µM. `C[C@@]1(N=[N+]=[N-])[C@H](O)[C@@H](CO)O[C@H]1n1cnc2c(NC3CC3)nc(N)nc21` [Compound 138]: the concentration giving a half-maximal response (EC50) under setting [1] was over 100 µM. Take `CCOC(=O)[C@H](C)NP(=O)(OC[C@H]1O[C@@H](n2cnc3c(OCC)nc(N)nc32)[C@](C)(N=[N+]=[N-])[C@@H]1O)Oc1ccc(Cl)cc1` (single isomer, unassigned) [Compound 353]: the 50% effective concentration (EC50) stood at 0.9 µM.

As for `CC(C)OC(=O)[C@H](C)NP(=O)(OC[C@H]1O[C@@H](n2ccc(N)nc2=O)[C@](C)(N=[N+]=[N-])[C@@H]1O)Oc1ccccc1` (stereo partly drawn) [Compound 22], the EC50 (Hepatitis C virus, 72 h) was 3.1 µM. As for `COC(=O)[C@H](C)NP(=O)(OC[C@H]1O[C@@H](n2ccc(N)nc2=O)[C@](C)(N=[N+]=[N-])[C@@H]1O)Oc1ccc(Cl)c(Cl)c1` (single isomer, unassigned) [Compound 193], the concentration giving a half-maximal response (EC50) was 61 µM. In the case of `CCOc1nc(N)nc2c1ncn2[C@@H]1O[C@@H]2COP(=O)(OC)O[C@H]2[C@@]1(C)N=[N+]=[N-]` (stereo partly drawn) [Compound 25], the 50% effective concentration (EC50) (Hepatitis C virus, 72 h) came out at 13 µM. `CC(C)COC(=O)[C@H](C)NP(=O)(OC[C@H]1O[C@@H](n2ccc(=O)[nH]c2=O)[C@](C)(N=[N+]=[N-])[C@@H]1O)Oc1ccccc1` (stereo partly drawn) [Compound 38]: the EC50 amounted to 0.3 µM. In the case of `CCCOC(=O)[C@H](C)NP(=O)(OC[C@H]1O[C@@H](n2cnc3c(OC)nc(N)nc32)[C@](C)(N=[N+]=[N-])[C@@H]1O)Oc1ccccc1` (stereo partly drawn) [Compound 78], for the setting “Hepatitis C virus, 72 h”, the 50% effective concentration (EC50) is 1.1 µM. The same measure, in the same setting: then `CCOc1nc(N)nc2c1ncn2[C@@H]1O[C@H](COP(=O)(N[C@@H](C)C(=O)OC)Oc2ccc(Cl)c(Cl)c2)[C@@H](O)[C@@]1(C)N=[N+]=[N-]` (stereo partly drawn) [Compound 308], with 2.1 µM; and `CCCCOC(=O)[C@H](C)NP(=O)(OC[C@H]1O[C@@H](n2cnc3c(OC)nc(N)nc32)[C@](C)(N=[N+]=[N-])[C@@H]1O)Oc1cccc2ccccc12` (stereo partly drawn) [Compound 52], with 1.2 µM. As for `CCOC(=O)[C@H](C)NP(=O)(OC[C@H]1O[C@@H](n2cnc3c(OC)nc(N)nc32)[C@](C)(N=[N+]=[N-])[C@@H]1O)Oc1ccc(F)cc1` (single isomer, unassigned) [Compound 270], the EC50 turned out to be 1.8 µM. For the compound `CCOC(=O)[C@H](C)NP(=O)(OC[C@H]1O[C@@H](n2ccc(N)nc2=O)[C@](C)(N=[N+]=[N-])[C@@H]1O)Oc1ccc(Cl)cc1` (stereo partly drawn) [Compound 198], the EC50 (Hepatitis C virus, 72 h) worked out at 0.6 µM. For `CCCCOC(=O)[C@H](C)NP(=O)(OC[C@H]1O[C@@H](n2cnc3c(OCC)nc(N)nc32)[C@](C)(N=[N+]=[N-])[C@@H]1O)Oc1ccc(F)cc1` (stereo partly drawn) [Compound 366], the concentration giving a half-maximal response (EC50) (Hepatitis C virus, 72 h) was 0.4 µM. Take `CC(C)OC(=O)[C@H](C)NP(=O)(OC[C@H]1O[C@@H](n2ccc(=O)[nH]c2=O)[C@](C)(N=[N+]=[N-])[C@@H]1O)Oc1ccc2c(c1)OCO2` (stereo partly drawn) [Compound 42]: the EC50 (Hepatitis C virus, 72 h) was 25 µM.

For `CCOc1nc(N)nc2c1ncn2[C@@H]1O[C@H](COP(=O)(N[C@@H](C)C(=O)OCC(C)(C)C)Oc2ccccc2)[C@@H](O)[C@@]1(C)N=[N+]=[N-]` (single isomer, unassigned) [Compound 160], the EC50 came out at 6.8 µM. Consider `CC(C)OC(=O)[C@H](C)NP(=O)(OC[C@H]1O[C@@H](n2ccc(=O)[nH]c2=O)[C@](C)(N=[N+]=[N-])[C@@H]1O)Oc1ccc(Cl)c(Cl)c1` (stereo partly drawn) [Compound 92], for which, where the note is “Hepatitis C virus, 72 h”, the concentration giving a half-maximal response (EC50) is 7.6 µM.

For `COC(=O)c1ccccc1OP(=O)(N[C@@H](C)C(=O)OC)OC[C@H]1O[C@@H](n2ccc(=O)[nH]c2=O)[C@](C)(N=[N+]=[N-])[C@@H]1O` (single isomer, unassigned) [Compound 228], the half-maximal effective concentration (EC50) stood at 1.3 µM. `C[C@H](NP(=O)(OC[C@H]1O[C@@H](n2ccc(=O)[nH]c2=O)[C@](C)(N=[N+]=[N-])[C@@H]1O)Oc1ccccc1)C(=O)OCC(C)(C)C` (single isomer, unassigned) [Compound 154]: the 50% effective concentration (EC50) amounted to 0.7 µM.

`C[C@H](NP(=O)(OC[C@H]1O[C@@H](n2ccc(=O)[nH]c2=O)[C@](C)(N=[N+]=[N-])[C@@H]1O)Oc1ccccc1)C(=O)O[C@H](C)c1ccccc1` (single isomer, unassigned) [Compound 302]: under “Hepatitis C virus, 72 h”, the EC50 turned out to be 24.9 µM. Regarding `CC(C)OC(=O)[C@H](C)NP(=O)(OC[C@H]1O[C@@H](n2ccc(N)nc2=O)[C@](C)(N=[N+]=[N-])[C@@H]1O)Oc1ccccc1Cl` (single isomer, unassigned) [Compound 332], the EC50 is 20 µM. On the same count and under the same terms, for `COC(=O)[C@H](C)NP(=O)(OC[C@H]1O[C@@H](n2ccc(N)nc2=O)[C@](C)(N=[N+]=[N-])[C@@H]1O)Oc1ccc(F)cc1` (single isomer, unassigned) [Compound 187] the value was 22 µM.

Turning to `CCOc1nc(N)nc2c1ncn2[C@@H]1O[C@H](COP(=O)(N[C@@H](C)C(=O)OC)Oc2ccccc2)[C@@H](O)[C@@]1(C)N=[N+]=[N-]` (single isomer, unassigned) [Compound 142], for the setting “Hepatitis C virus, 72 h”, the half-maximal effective concentration (EC50) turned out to be 0.5 µM. In the case of `COC(=O)[C@H](C)NP(=O)(OC[C@H]1O[C@@H](n2ccc(=O)[nH]c2=O)[C@](C)(N=[N+]=[N-])[C@@H]1O)Oc1ccc(Cl)cc1` (single isomer, unassigned) [Compound 326], the EC50 was 0.5 µM.

On to `C[C@H](NP(=O)(OC[C@H]1O[C@@H](n2ccc(=O)[nH]c2=O)[C@](C)(N=[N+]=[N-])[C@@H]1O)Oc1ccccc1)C(=O)OCc1ccccc1` (single isomer, unassigned) [Compound 300], for which the EC50 was found to be 29 µM. For `CCCOC(=O)[C@H](C)NP(=O)(OC[C@H]1O[C@@H](n2ccc(N)nc2=O)[C@](C)(N=[N+]=[N-])[C@@H]1O)Oc1ccccc1` (stereo partly drawn) [Compound 30], where the note is “Hepatitis C virus, 72 h”, the 50% effective concentration (EC50) is 3.3 µM. Turning to `C[C@H](NP(=O)(OC[C@H]1O[C@@H](n2ccc(N)nc2=O)[C@](C)(N=[N+]=[N-])[C@@H]1O)Oc1ccc(Cl)cc1)C(=O)OC1CCCCC1` (single isomer, unassigned) [Compound 340], the concentration for a half-maximal effect (EC50) was 20 µM. With `COC(=O)[C@H](C)NP(=O)(OC[C@H]1O[C@@H](n2cnc3c(OC)nc(N)nc32)[C@](C)(N=[N+]=[N-])C1O)Oc1cccc2ccccc12` (single isomer, unassigned) [Compound 254], the EC50 (Hepatitis C virus, 72 h) came out at 1 µM. Consider `COC(=O)[C@H](C)NP(=O)(OC[C@H]1O[C@@H](n2ccc(N)nc2=O)[C@](C)(N=[N+]=[N-])[C@@H]1O)Oc1ccc(Cl)c(Cl)c1` (single isomer, unassigned) [Compound 194], for which the EC50 came out at 35 µM. Still for that read-out and setting: then `CCOc1nc(N)nc2c1ncn2[C@@H]1O[C@H](COP(=O)(N[C@@H](C)C(=O)OCC(C)C)Oc2ccccc2)[C@@H](O)[C@@]1(C)N=[N+]=[N-]` (stereo partly drawn) [Compound 62], with 0.8 µM. For the compound `C[C@@]1(N=[N+]=[N-])[C@@H]2OP(=O)(OC3CCCC3)OC[C@H]2O[C@H]1n1ccc(=O)[nH]c1=O` (stereo partly drawn) [Compound 88], under setting [2], the EC50 is 0.4 µM. `CCOC(=O)c1cccc(OP(=O)(N[C@@H](C)C(=O)OC)OC[C@H]2O[C@@H](n3ccc(=O)[nH]c3=O)[C@](C)(N=[N+]=[N-])[C@@H]2O)c1` (single isomer, unassigned) [Compound 214]: the EC50 was 12 µM. In the case of `C[C@H](NP(=O)(OC[C@H]1O[C@@H](n2ccc(N)nc2=O)[C@](C)(N=[N+]=[N-])[C@@H]1O)Oc1ccccc1)C(=O)OC1CCCCC1` (single isomer, unassigned) [Compound 337], the EC50 (Hepatitis C virus, 72 h) was 27 µM.

As to `CCOc1nc(N)nc2c1ncn2[C@@H]1O[C@H](COP(=O)(N[C@@H](C)C(=O)OC)Oc2ccc(F)cc2)[C@@H](O)[C@@]1(C)N=[N+]=[N-]` (stereo partly drawn) [Compound 35], where the note is “Hepatitis C virus, 72 h”, the EC50 was 1.6 µM.

Take `CCCCOC(=O)[C@H](C)NP(=O)(OC[C@H]1O[C@@H](n2cnc3c(OCC)nc(N)nc32)[C@](C)(N=[N+]=[N-])[C@@H]1O)Oc1ccc(Cl)cc1` (stereo partly drawn) [Compound 368]: the half-maximal effective concentration (EC50) (Hepatitis C virus, 72 h) stood at 0.08 µM.
